Measurements reported in patent US12139458B2, “(2,5-dioxopyrrolidin-1-yl)(phenyl)-acetamide derivatives and their use in the treatment of neurological diseases” (UNIWERSYTET JAGIELLONSKI, priority 2019, dated 2024).
Where a name gives a salt, the structure may show the parent alone.

How the values were obtained:
[1] = tested on: male Swiss albino mice (CD-1); experiment: Maximal electroshock seizure test (MES); type: in vivo; settings: screening, 100 mg/kg i.p., 0.5 h, mice; for responders at 100 mg/kg: Mus musculus, ip, read-out: MES: number of mice protected/number of mice tested (converted)
Description: (§1) The male Swiss albino mice (CD-1) weighing 18-26 g were used. All procedures were carried out in accordance with applicable Polish and international guidelines on the ethics of animal testing, after obtaining appropriate institutional approval. The substances were administered intraperitoneally (i.p.), in 1% aqueous solution of Tween, as single injections with a volume of 10 ml/kg, 30 minutes before the given test. Screening was performed on groups consisted of 4 mice. The average effective dose (ED50) in given test and toxic dose in the rotarod test (TD50) was estimated based on the results obtained in 3-4 groups of animals consisting of 6 mice. All tests were carried out based on the procedures described in the specialist literature.
In the MES test, the seizures were induced by an electrical stimulus lasting of 0.2 s duration, 500 V voltage and 25 mA intensity. The electrical stimuli was generated using an electric shock generator (Rodent shocker, Type 221, Hugo Sachs Elektronik, Germany) and delivered to the animal using electrodes placed on the auricles. The study was conducted 30 minutes after intraperitoneal administration of the compounds at various doses. During the experiment, the number of animals that experienced a seizure episode in the form of tonic extension of the hind limbs was counted (Kamiński, K.; Rapacz, A.; Łuszczki, J. J.; Latacz, G.; Obniska, J.; Kieć-Kononowicz, K.; Filipek, B. Bioorg. Med. Chem. 2015, 23, 2548-2561; Castel-Branco, M. M.; Alves, G. L.; Figueiredo, I. V.; Falcão, A. C.; Caramona, M. M. Methods Find. Exp. Clin. Pharmacol. 2009, 31, 101-106).
(§2) To perform a statistical evaluation of the results, one-way ANOVA variance analysis and Dunnett's post hoc test (multiple comparison test) were used. The value at the significance level p<0.05 was considered statistically significant.

[2] = tested on: male Swiss albino mice (CD-1); experiment: Psychomotor seizure test 6 Hz (32 mA); type: in vivo; settings: screening, 100 mg/kg i.p., 0.5 h, mice; for responders at 100 mg/kg: Mus musculus, ip, read-out: 6 Hz (32 mA): number of mice protected/number of mice tested (converted)
Description: as §1
In the 6 Hz test, seizures were induced by an electric stimulus of 32 mA and/or 44 mA and a frequency of 6 pulses per second. An electrical pulse was generated using an electric shock generator (ECT Unit 57800; Ugo Basile, Gemonio, Italy) and delivered to the animal using ocular electrodes. Before starting the test, the eye surface was gently moistened with a solution of local anesthetic (1% lidocaine solution). The study was conducted 30 minutes after intraperitoneal administration of the compounds at various doses. An electrical pulse was delivered continuously for a period of 3 seconds, followed by observation of the animal for a period of 10 seconds. During this time, immobility or stun associated with rearing, forelimb clonus, twitching of the vibrissae and Straub's tail were observed. These symptoms persist throughout the observation period, indicating the occurrence of psychomotor seizures in mice. Mice resuming normal behavior within 10 s after stimulation were considered as protected (Barton, M. E.; Klein, B. D.; Wolf, H. H.; White, H. S. Epilepsy Res. 2001, 47, 217-227; Wojda, E.; Wlaź, A.; Patsalos, P. N.; Łuszczki, J. J. Epilepsy Res. 2009, 86, 163-174).
as §2

[3] = tested on: male Swiss albino mice (CD-1); experiment: Subcutaneous pentylenetetrazole seizure test (scPTZ); type: in vivo; settings: screening, 100 mg/kg i.p., 0.5 h, mice; for responders at 100 mg/kg: Mus musculus, ip, read-out: scPTZ: number of mice protected/number of mice tested (converted)
Description: as §1
In the scPTZ test, seizures were induced by subcutaneous administration of pentylenetetrazole (PTZ) at a dose of 100 mg/kg. This caused clonic seizures with accompanying loss of the righting reflex. Test compounds were administered 30 minutes before the experiment. After PTZ administration, the animals were placed individually in transparent containers and observed for a period of 30 minutes for the occurrence of clonic seizures. During this time, the latency of the first onset of clonic seizures, defined as clonus of the whole body lasting at least 3 seconds with loss of the righting reflex and the number of seizure episodes during the test were noted and compared with control group. The absence of clonic convulsions within the observed time period was interpreted as the compound's ability to protect against PTZ-induced seizures (Ferreri, G.; Chimirri, A.; Russo, E.; Gitto, R.; Gareri, P.; De Sarro, A.; De Sarro, G. Pharmacol. Biochem. Behav. 2004, 77, 85-94; Łączkowski, K.; Sałat, K.; Misiura, K.; Podkowa, A.; Malikowska, N. J. Enzyme Inhib. Med. Chem. 2016, 31, 1576-82).
as §2

Work on `O=C(C(Cc1ccccc1)N1C(=O)CCC1=O)N1CCN(c2cccc(C(F)(F)F)c2)CC1` (stereo not shown) (as salt: salt) [Example 23, 1-(1-Oxo-3-phenyl-1-(4-(3-(trifluoromethyl)phenyl)piperazin-1-yl)propan-2-yl)pyrrolidine-2,5-dione] yielded a melting point of 126.1 to 127.2 °C.
For `O=C(C(c1ccccc1)N1C(=O)CCC1=O)N1CCN(c2ccc(C(F)(F)F)cc2)CC1` (racemic) [Compound 7, 1-(2-Oxo-1-phenyl-2-(4-(4-(trifluoromethyl)phenyl)piperazin-1-yl)ethyl)pyrrolidine-2,5-dione], the “MES: number of mice protected/number of mice tested” value [1] was “¾”, the “6 Hz (32 mA): number of mice protected/number of mice tested” value [2] was “¾” and the “scPTZ: number of mice protected/number of mice tested” value [3] was “¾”. For the same molecule, the melting point was 173.2 to 174.3 °C.
For `O=C(C(c1ccccc1)N1C(=O)CCC1=O)N1CCN(c2cc(C(F)(F)F)cc(C(F)(F)F)c2)CC1` (racemic) [Compound 8, 1-(2-(4-(3,5-Bis(trifluoromethyl)phenyl)piperazin-1-yl)-2-oxo-1-phenylethyl)pyrrolidine-2,5-dione], the responders at 100 mg/kg [1] was 100%, the “6 Hz (32 mA): number of mice protected/number of mice tested” value [2] was “¾” and the responders at 100 mg/kg [3] was 100%. It also gave a melting point of 228.1 to 229.4 °C.
In the case of `O=C(C(c1ccccc1)N1C(=O)CCC1=O)N1CCN(c2ccc(OC(F)(F)F)cc2)CC1` (racemic) [Compound 11, 1-(2-Oxo-1-phenyl-2-(4-(4-(trifluoromethoxy)phenyl)piperazin-1-yl)ethyl)pyrrolidine-2,5-dione], the “MES: number of mice protected/number of mice tested” value [1] is reported as “¾”, the “6 Hz (32 mA): number of mice protected/number of mice tested” value [2] is reported as “¾” and the responders at 100 mg/kg [3] is reported as 50%. It also gave a melting point of 102.3 to 103.5 °C.
With `O=C(C(c1ccccc1)N1C(=O)CCC1=O)N1CCN(c2ccc3ccccc3c2)CC1` (racemic) [Compound 15, 1-(2-(4-(Naphth-2-yl)piperazin-1-yl)-2-oxo-1-phenylethyl)pyrrolidine-2,5-dione] the responders at 100 mg/kg [1] was 50%, the “6 Hz (32 mA): number of mice protected/number of mice tested” value [2] was “¾” and the “scPTZ: number of mice protected/number of mice tested” value [3] was “¾”. It also gave a melting point of 197.1 to 198.5 °C.
In the case of `O=C(C(c1ccccc1)N1C(=O)CCC1=O)N1CCN(c2ccc3sccc3c2)CC1` (racemic) [Compound 16, 1-(2-(4-(Benzo[b]thiophen-5-yl)piperazin-1-yl)-2-oxo-1-phenylethyl)pyrrolidine-2,5-dione], the “MES: number of mice protected/number of mice tested” value [1] is reported as “¾”, the “6 Hz (32 mA): number of mice protected/number of mice tested” value [2] is reported as “¾” and the “scPTZ: number of mice protected/number of mice tested” value [3] is reported as “¾”. The melting point was 164.1 to 165.3 °C.
In the case of `O=C(C(c1ccccc1)N1C(=O)CCC1=O)N1CCC(c2cccc(Cl)c2)CC1` (racemic) [Compound 18, 1-(2-(4-(3-Chlorophenyl)piperidin-1-yl)-2-oxo-1-phenylethyl)pyrrolidine-2,5-dione], the “MES: number of mice protected/number of mice tested” value [1] is reported as “¾”, the “6 Hz (32 mA): number of mice protected/number of mice tested” value [2] is reported as “¾” and the “scPTZ: number of mice protected/number of mice tested” value [3] is reported as “¾”. It also gave a melting point of 111.8 to 113.4 °C.
For `O=C(C(c1ccccc1)N1C(=O)CCC1=O)N1CCC(c2cccc(OC(F)(F)F)c2)CC1` (racemic) [Compound 20, 1-(2-Oxo-1-phenyl-2-(4-(3-(trifluoromethoxy)phenyl)piperidin-1-yl)ethyl)pyrrolidine-2,5-dione], the responders at 100 mg/kg [1] was 100%, the “6 Hz (32 mA): number of mice protected/number of mice tested” value [2] was “¾” and the responders at 100 mg/kg [3] was 50%. For the same molecule, the melting point was 112.1 to 113.2 °C.
In the case of `O=C([C@@H](c1ccccc1)N1C(=O)CCC1=O)N1CCN(c2cc(Cl)cc(Cl)c2)CC1` [(R)-4, (R)-1-(2-(4-(3,5-dichlorophenyl)piperazin-1-yl)-2-oxo-1-phenylethyl)pyrrolidine-2,5-dione], the responders at 100 mg/kg [1] is reported as 100%, the responders at 100 mg/kg [2] is reported as 100% and the responders at 100 mg/kg [3] is reported as 50%. The melting point was 174.3 to 175.5 °C.
In the case of `O=C([C@@H](c1ccccc1)N1C(=O)CCC1=O)N1CCN(c2cccc(SC(F)(F)F)c2)CC1` [(R)-12], the “MES: number of mice protected/number of mice tested” value [1] is reported as 4/4, the “6 Hz (32 mA): number of mice protected/number of mice tested” value [2] is reported as 4/4 and the “scPTZ: number of mice protected/number of mice tested” value [3] is reported as “¼”.
For `O=C(C(c1ccccc1)N1C(=O)CCC1=O)N1CCN(c2ccc3oncc3c2)CC1` (stereo not shown) [Compound 17, 1-(2-(4-(1,2-Benzoxazol-5-il)piperazin-1-yl)-2-oxo-1-phenylethyl)pyrrolidine-2,5-dione], the “MES: number of mice protected/number of mice tested” value [1] was “¾”, the “6 Hz (32 mA): number of mice protected/number of mice tested” value [2] was “¾” and the “scPTZ: number of mice protected/number of mice tested” value [3] was “¾”.
In the case of `O=C(C(Cc1ccccc1)N1C(=O)CCC1=O)N1CCN(c2ccccc2)CC1` (stereo not shown) [Compound 21, 1-(1-Oxo-3-phenyl-1-(4-phenylpiperazin-1-yl)prop-2-yl)pyrrolidine-2,5-dione], the melting point is reported as 121.7 to 123.2 °C.
Molecule `O=C(C(Cc1ccccc1)N1C(=O)CCC1=O)N1CCN(c2cccc(Cl)c2)CC1` (stereo not shown) [Compound 22, 1-(1-(4-(3-Chlorophenyl)piperazin-1-yl)-1-oxo-3-phenylpropan-2-yl)pyrrolidine-2,5-dione] has a melting point of 114.3 to 116.2 °C.
For `O=C(C(Cc1ccccc1)N1C(=O)CCC1=O)N1CCN(c2cccc(-c3ccccc3)c2)CC1` (stereo not shown) [Compound 24, 1-(1-(4-([1,1′-Biphenyl]-3-yl)piperazin-1-yl)-1-oxo-3-phenylpropan-2-yl)pyrrolidine-2,5-dione], the melting point was 119.1 to 120 °C.
For `O=C(C(Cc1ccccc1)N1C(=O)CCC1=O)N1CCN(c2cccc(OC(F)(F)F)c2)CC1` (stereo not shown) [Compound 25, 1-(1-Oxo-3-phenyl-1-(4-(3-(trifluoromethoxy)phenyl)piperazin-1-yl)propan-2-yl)pyrrolidine-2,5-dione], the melting point was 104.4 to 105.5 °C.
For `CNC1CC(=O)N(C(C(=O)N2CCN(c3cccc(C(F)(F)F)c3)CC2)c2ccccc2)C1=O.Cl` (stereo not shown) [Compound 48, 3-(Methylamino)-1-(2-oxo-1-phenyl-2-(4-(3-(trifluoromethyl)phenyl)piperazin-1-yl)ethyl)pyrrolidine-2,5-dione hydrochloride], the responders at 100 mg/kg [1] was 100%, the responders at 100 mg/kg [2] was 100% and the “scPTZ: number of mice protected/number of mice tested” value [3] was “¾”. It also gave a melting point of 161.2 to 163.4 °C.
In the case of `CN(C)C1CC(=O)N(C(C(=O)N2CCN(c3cccc(C(F)(F)F)c3)CC2)c2ccccc2)C1=O.Cl` (stereo not shown) [Compound 49, 3-(Dimethylamino)-1-(2-oxo-1-phenyl-2-(4-(3-(trifluoromethyl)phenyl)-piperazin-1-yl)ethyl)pyrrolidine-2,5-dione hydrochloride], the responders at 100 mg/kg [1] is reported as 100%, the responders at 100 mg/kg [2] is reported as 100% and the “scPTZ: number of mice protected/number of mice tested” value [3] is reported as “¾”. For the same molecule, the melting point was 157.8 to 159.2 °C.
With `CCN(CC)C1CC(=O)N(C(C(=O)N2CCN(c3cccc(C(F)(F)F)c3)CC2)c2ccccc2)C1=O.Cl` (stereo not shown) [Compound 50, 3-(Diethylamino)-1-(2-oxo-1-phenyl-2-(4-(3-(trifluoromethyl)phenyl)piperazin-1-yl)ethyl)pyrrolidine-2,5-dione hydrochloride] the responders at 100 mg/kg [1] was 100%, the responders at 100 mg/kg [2] was 100% and the responders at 100 mg/kg [3] was 50%. It also gave a melting point of 142.2 to 143.1 °C.
